Experimental data from patent US12527849B2, “Apparatus for determining administration form of a composition of an engineered virus-based nanoparticle for a treatment of an autoimmune condition” (Diamante Srl, priority 2021, dated 2026).

Tests used:
TGF-β1 = assay: Cytokine ELISA in CIA mice, day 60: TGF-β1; type: in vivo; conditions: serum pooled from five CIA mice
Source text: (§1) With continued reference to FIG. 1, in some embodiments, administration 116 may be done to an animal. As a non-limiting example, the animal may include a mouse, a fish, a rabbit, human, and the like. As a non-limiting example, administration 116 of composition of the engineered virus-based nanoparticle for a treatment of an autoimmune condition may be done to dilute, brown, and non-agouti (DBA) mice based on their susceptibility to collagen-induced arthritis (CIA). Female DBA/1 mice 6 to 8 weeks of age may be maintained under specific pathogen-free conditions. CIA may be induced by the intradermal tail base injection of 100 μg of chicken type II collagen (Sigma-Aldrich) as previously described. Five mice per group may be immunized on days 0 and 21 to induce arthritis. The onset of disease may be confirmed on the day that swelling or erythema may be observed in any paw, typically 4 to 10 days after the second immunization. Each experimental group may be treated seven times, 5 days apart, starting from day 28 after the first immunization, with intraperitoneal injections of saline (200 μI per mouse), TBSV·pLIp1, TBSV·pFADK2, pLIp1+IFA, and pFADK2+IFA (all 50 μg per mouse in 200 μl) or dexamethasone (5 μg per mouse in 200 μl). […] CIA may be assessed using a macroscopic score system based on the visual identification of arthritic limbs.

IL-17A = assay: Cytokine ELISA in CIA mice, day 60: IL-17A; type: in vivo
Source text: as §1, with “immunization.” for “immunization. Each experimental group may be treated seven times, 5 days apart, starting from day 28 after the first immunization, with intraperitoneal injections of saline (200 μI per mouse), TBSV·pLIp1, TBSV·pFADK2, pLIp1+IFA, and pFADK2+IFA (all 50 μg per mouse in 200 μl) or dexamethasone (5 μg per mouse in 200 μl).”, “limbs. The clinical severity of arthritis may be evaluated as follows: Each mouse may be inspected every 2 to 3 days for three different parameters: (i) swelling of the hind ankle and foot, measured with calipers; (ii) erythema of each leg; and (iii) swelling of the fingers. The RA index for each mouse was expressed as the mean of the three scores from the individual parameters. At the end of the experiment (60 days), we determined the proportion of CD25+Foxp3+ cells in the lymph nodes and measured cytokine titers in the lymph nodes, joints, and serum.” for “limbs.”
With continued reference to FIG. 1, in some embodiments, processor 104 may determine critical administration 124 as a function of a cytokine profile and a proportion of CD25^+ Foxp3^+ cells. […] In some embodiments, to quantify cytokines in DBA mice, joint tissues may be pulverized and resuspended in 1 ml of lysis medium per 100-mg joint weight for 60 min at 37′C, followed by centrifugation to remove debris. […]

Compound: C[C@@H]1C[C@H]2[C@@H]3CCC4=CC(=O)C=C[C@]4(C)[C@@]3(F)[C@@H](O)C[C@]2(C)[C@@]1(O)C(=O)CO [Dexamethasone, dexamethasone]
- TGF-β1 (TGF-β1): 10385.0 pg/mL
- IL-17A J (IL-17A; joint supernatant, CIA mice, day 60, mean n=3): 1219.43 pg/mL
- IL-17A LN (IL-17A; lymph node supernatant, CIA mice, day 60, mean n=3): 1540.40 pg/mL
- IL-17A S (IL-17A; serum pooled from five CIA mice, day 60): 313.8 pg/mL
